Values of other authors in US10300065B2, “Method of treating or prevention of atherothrombotic events in patients with history of myocardial infarction” (ASTRAZENECA AB, priority 2015, dated 2019).

How the values were obtained:
[1] = human, in vivo, po; cited from earlier work
[2] = test system: patients with acute coronary syndrome; conditions: PLATO, cited from earlier work

Row | Compound | AUC and cmax of crushed tablets relative to whole tablets (bioequivalence) [1] | serum uric acid level increase from baseline ([2]; clopidogrel) | reports of gout ([2]; each treatment group) [%]
1 | CCCSc1nc(N[C@@H]2C[C@H]2c2ccc(F)c(F)c2)c2nnn([C@@H]3C[C@H](O)[C@@H](O)[C@H]3O)c2n1 [AR-C124910XX] | 80-125% | – | –
2 | COC(=O)[C@H](c1ccccc1Cl)N1CCc2sccc2C1 [clopidogrel] | – | approximately 0.2 mg/dL | 0.6
